Results: ChEMBL document CHEMBL3870314, “Design, synthesis, anticancer, antimicrobial activities and molecular docking studies of theophylline containing acetylenes and theophylline containing 1,2,3-triazoles with variant nucleoside derivatives” (Eur J Med Chem, 2016)
Values after ≈ are worked out from the molar mass of the structure shown.

tested on: not listed separately; experiment: Cytotoxicity against human A375 cells after 48 hrs by MTT assay; type: functional, cell-based; conditions: A-375, 48 h

Row | SMILES | IC50
1 | C#CCn1cnc2c1c(=O)n(C)c(=O)n2C | 153 µM
2 | COc1ccc(/C=C\c2cc(OC)c(OC)c(OC)c2)cc1O [COMBRETASTATIN A4] | 0.21 µM
3 | CCn1c(=O)ccn(C2OC(Cn3cc(COC(=O)Cn4cnc5c4c(=O)n(C)c(=O)n5C)nn3)C(OC)C2OC)c1=O (centres undefined) | 62.8 µM
4 | Cn1c(=O)c2c(ncn2CC(=O)NCc2cn(CC3OC(n4ccc(=O)[nH]c4=O)C4OC(C)(C)OC34)nn2)n(C)c1=O (centres undefined) | 58.2 µM
5 | Cn1c(=O)c2c(ncn2CC(=O)OCCCc2cn(CC3OC(n4ccc(=O)[nH]c4=O)C4OC(C)(C)OC34)nn2)n(C)c1=O (centres undefined) | 8.23 µM
6 | Cn1c(=O)c2c(ncn2CC(=O)OCc2cn(CC3OC(n4ccc(=O)[nH]c4=O)C4OC(C)(C)OC34)nn2)n(C)c1=O (centres undefined) | 56.2 µM
7 | CCn1c(=O)ccn(C2OC(Cn3cc(COC(=O)C(C)n4cnc5c4c(=O)n(C)c(=O)n5C)nn3)C(O)C2O)c1=O (centres undefined) | 68.4 µM
8 | C#CCCOC(=O)Cn1cnc2c1c(=O)n(C)c(=O)n2C | 159 µM
9 | C#CCNC(=O)Cn1cnc2c1c(=O)n(C)c(=O)n2C | 28.2 µM
10 | Cn1c(=O)c2c(ncn2CCCc2cn(CC3OC(n4ccc(=O)[nH]c4=O)C4OC(C)(C)OC34)nn2)n(C)c1=O (centres undefined) | 9.4 µM

tested on: not listed separately; experiment: Cytotoxicity against human A549 cells after 48 hrs by MTT assay; type: functional, cell-based; conditions: A549, 48 h

Row | SMILES | IC50
11 | C#CCn1cnc2c1c(=O)n(C)c(=O)n2C | 152 µM
12 | COc1ccc(/C=C\c2cc(OC)c(OC)c(OC)c2)cc1O [COMBRETASTATIN A4] | 0.11 µM
13 | CCn1c(=O)ccn(C2OC(Cn3cc(COC(=O)Cn4cnc5c4c(=O)n(C)c(=O)n5C)nn3)C(OC)C2OC)c1=O (centres undefined) | 56.8 µM
14 | Cn1c(=O)c2c(ncn2CC(=O)NCc2cn(CC3OC(n4ccc(=O)[nH]c4=O)C4OC(C)(C)OC34)nn2)n(C)c1=O (centres undefined) | 53.9 µM
15 | Cn1c(=O)c2c(ncn2CC(=O)OCCCc2cn(CC3OC(n4ccc(=O)[nH]c4=O)C4OC(C)(C)OC34)nn2)n(C)c1=O (centres undefined) | 14.3 µM
16 | Cn1c(=O)c2c(ncn2CC(=O)OCc2cn(CC3OC(n4ccc(=O)[nH]c4=O)C4OC(C)(C)OC34)nn2)n(C)c1=O (centres undefined) | 3.59 µM
17 | CCn1c(=O)ccn(C2OC(Cn3cc(COC(=O)C(C)n4cnc5c4c(=O)n(C)c(=O)n5C)nn3)C(O)C2O)c1=O (centres undefined) | 2.89 µM
18 | C#CCCOC(=O)Cn1cnc2c1c(=O)n(C)c(=O)n2C | 104 µM
19 | C#CCNC(=O)Cn1cnc2c1c(=O)n(C)c(=O)n2C | 114 µM
20 | Cn1c(=O)c2c(ncn2CCCc2cn(CC3OC(n4ccc(=O)[nH]c4=O)C4OC(C)(C)OC34)nn2)n(C)c1=O (centres undefined) | 15.4 µM

tested on: not listed separately; experiment: Cytotoxicity against human MCF7 cells after 48 hrs by MTT assay; type: functional, cell-based; conditions: MCF7, 48 h

Row | SMILES | IC50
21 | C#CCn1cnc2c1c(=O)n(C)c(=O)n2C | 103 µM
22 | COc1ccc(/C=C\c2cc(OC)c(OC)c(OC)c2)cc1O [COMBRETASTATIN A4] | 0.18 µM
23 | CCn1c(=O)ccn(C2OC(Cn3cc(COC(=O)Cn4cnc5c4c(=O)n(C)c(=O)n5C)nn3)C(OC)C2OC)c1=O (centres undefined) | 2.67 µM
24 | Cn1c(=O)c2c(ncn2CC(=O)NCc2cn(CC3OC(n4ccc(=O)[nH]c4=O)C4OC(C)(C)OC34)nn2)n(C)c1=O (centres undefined) | 2.14 µM
25 | Cn1c(=O)c2c(ncn2CC(=O)OCCCc2cn(CC3OC(n4ccc(=O)[nH]c4=O)C4OC(C)(C)OC34)nn2)n(C)c1=O (centres undefined) | 30.6 µM
26 | Cn1c(=O)c2c(ncn2CC(=O)OCc2cn(CC3OC(n4ccc(=O)[nH]c4=O)C4OC(C)(C)OC34)nn2)n(C)c1=O (centres undefined) | 23.6 µM
27 | CCn1c(=O)ccn(C2OC(Cn3cc(COC(=O)C(C)n4cnc5c4c(=O)n(C)c(=O)n5C)nn3)C(O)C2O)c1=O (centres undefined) | 2.13 µM
28 | C#CCCOC(=O)Cn1cnc2c1c(=O)n(C)c(=O)n2C | 56.3 µM
29 | C#CCNC(=O)Cn1cnc2c1c(=O)n(C)c(=O)n2C | 157 µM
30 | Cn1c(=O)c2c(ncn2CCCc2cn(CC3OC(n4ccc(=O)[nH]c4=O)C4OC(C)(C)OC34)nn2)n(C)c1=O (centres undefined) | 34.2 µM

tested on: Bacillus cereus; experiment: Antimicrobial activity against Bacillus cereus ATCC 10876 incubated overnight by two-fold serial dilution method; type: functional; conditions: not given

Row | SMILES | MIC
31 | C#CCn1cnc2c1c(=O)n(C)c(=O)n2C | 0.125 µg/mL (≈ 0.573 µM)
32 | Cn1c(=O)c2c(ncn2CC(=O)NCc2cn(CC3OC(n4ccc(=O)[nH]c4=O)C4OC(C)(C)OC34)nn2)n(C)c1=O (centres undefined) | 0.125 µg/mL (≈ 0.214 µM)
33 | Cn1c(=O)c2c(ncn2CC(=O)OCCCc2cn(CC3OC(n4ccc(=O)[nH]c4=O)C4OC(C)(C)OC34)nn2)n(C)c1=O (centres undefined) | 0.0312 µg/mL (≈ 0.0509 µM)
34 | Cn1c(=O)c2c(ncn2CC(=O)OCc2cn(CC3OC(n4ccc(=O)[nH]c4=O)C4OC(C)(C)OC34)nn2)n(C)c1=O (centres undefined) | 0.125 µg/mL (≈ 0.213 µM)
35 | CCn1c(=O)ccn(C2OC(Cn3cc(COC(=O)C(C)n4cnc5c4c(=O)n(C)c(=O)n5C)nn3)C(O)C2O)c1=O (centres undefined) | 0.0625 µg/mL (≈ 0.106 µM)
36 | C#CCCOC(=O)Cn1cnc2c1c(=O)n(C)c(=O)n2C | 0.125 µg/mL (≈ 0.431 µM)
37 | C#CCNC(=O)Cn1cnc2c1c(=O)n(C)c(=O)n2C | 0.0625 µg/mL (≈ 0.227 µM)
38 | Cn1c(=O)c2c(ncn2CCCc2cn(CC3OC(n4ccc(=O)[nH]c4=O)C4OC(C)(C)OC34)nn2)n(C)c1=O (centres undefined) | 0.0156 µg/mL (≈ 0.0281 µM)

tested on: not listed separately; experiment: Cytotoxicity against human HT-29 cells after 48 hrs by MTT assay; type: functional, cell-based; conditions: HT-29, 48 h

Row | SMILES | IC50
39 | C#CCn1cnc2c1c(=O)n(C)c(=O)n2C | 158 µM
40 | COc1ccc(/C=C\c2cc(OC)c(OC)c(OC)c2)cc1O [COMBRETASTATIN A4] | 0.93 µM
41 | CCn1c(=O)ccn(C2OC(Cn3cc(COC(=O)Cn4cnc5c4c(=O)n(C)c(=O)n5C)nn3)C(OC)C2OC)c1=O (centres undefined) | 58.8 µM
42 | Cn1c(=O)c2c(ncn2CC(=O)NCc2cn(CC3OC(n4ccc(=O)[nH]c4=O)C4OC(C)(C)OC34)nn2)n(C)c1=O (centres undefined) | 58.2 µM
43 | Cn1c(=O)c2c(ncn2CC(=O)OCCCc2cn(CC3OC(n4ccc(=O)[nH]c4=O)C4OC(C)(C)OC34)nn2)n(C)c1=O (centres undefined) | 12.4 µM
44 | Cn1c(=O)c2c(ncn2CC(=O)OCc2cn(CC3OC(n4ccc(=O)[nH]c4=O)C4OC(C)(C)OC34)nn2)n(C)c1=O (centres undefined) | 6.2 µM
45 | CCn1c(=O)ccn(C2OC(Cn3cc(COC(=O)C(C)n4cnc5c4c(=O)n(C)c(=O)n5C)nn3)C(O)C2O)c1=O (centres undefined) | 62.8 µM
46 | C#CCCOC(=O)Cn1cnc2c1c(=O)n(C)c(=O)n2C | 152 µM
47 | C#CCNC(=O)Cn1cnc2c1c(=O)n(C)c(=O)n2C | 19.4 µM
48 | Cn1c(=O)c2c(ncn2CCCc2cn(CC3OC(n4ccc(=O)[nH]c4=O)C4OC(C)(C)OC34)nn2)n(C)c1=O (centres undefined) | 7.45 µM

tested on: Pseudomonas aeruginosa; experiment: Antimicrobial activity against Pseudomonas aeruginosa ATCC 10145 incubated overnight by two-fold serial dilution method; type: functional; conditions: not given

Row | SMILES | MIC
49 | C#CCn1cnc2c1c(=O)n(C)c(=O)n2C | 0.125 µg/mL (≈ 0.573 µM)
50 | Cn1c(=O)c2c(ncn2CC(=O)NCc2cn(CC3OC(n4ccc(=O)[nH]c4=O)C4OC(C)(C)OC34)nn2)n(C)c1=O (centres undefined) | 0.125 µg/mL (≈ 0.214 µM)
51 | Cn1c(=O)c2c(ncn2CC(=O)OCCCc2cn(CC3OC(n4ccc(=O)[nH]c4=O)C4OC(C)(C)OC34)nn2)n(C)c1=O (centres undefined) | 0.0312 µg/mL (≈ 0.0509 µM)
52 | Cn1c(=O)c2c(ncn2CC(=O)OCc2cn(CC3OC(n4ccc(=O)[nH]c4=O)C4OC(C)(C)OC34)nn2)n(C)c1=O (centres undefined) | 0.0625 µg/mL (≈ 0.107 µM)
53 | CCn1c(=O)ccn(C2OC(Cn3cc(COC(=O)C(C)n4cnc5c4c(=O)n(C)c(=O)n5C)nn3)C(O)C2O)c1=O (centres undefined) | 0.0312 µg/mL (≈ 0.0532 µM)
54 | C#CCCOC(=O)Cn1cnc2c1c(=O)n(C)c(=O)n2C | 0.0625 µg/mL (≈ 0.215 µM)
55 | C#CCNC(=O)Cn1cnc2c1c(=O)n(C)c(=O)n2C | 0.0625 µg/mL (≈ 0.227 µM)
56 | Cn1c(=O)c2c(ncn2CCCc2cn(CC3OC(n4ccc(=O)[nH]c4=O)C4OC(C)(C)OC34)nn2)n(C)c1=O (centres undefined) | 0.0625 µg/mL (≈ 0.113 µM)

tested on: Staphylococcus aureus; experiment: Antimicrobial activity against Staphylococcus aureus ATCC 25923 incubated overnight by two-fold serial dilution method; type: functional; conditions: not given

Row | SMILES | MIC
57 | C#CCn1cnc2c1c(=O)n(C)c(=O)n2C | 0.0625 µg/mL (≈ 0.286 µM)
58 | Cn1c(=O)c2c(ncn2CC(=O)NCc2cn(CC3OC(n4ccc(=O)[nH]c4=O)C4OC(C)(C)OC34)nn2)n(C)c1=O (centres undefined) | 0.0312 µg/mL (≈ 0.0535 µM)
59 | Cn1c(=O)c2c(ncn2CC(=O)OCCCc2cn(CC3OC(n4ccc(=O)[nH]c4=O)C4OC(C)(C)OC34)nn2)n(C)c1=O (centres undefined) | 0.125 µg/mL (≈ 0.204 µM)
60 | Cn1c(=O)c2c(ncn2CC(=O)OCc2cn(CC3OC(n4ccc(=O)[nH]c4=O)C4OC(C)(C)OC34)nn2)n(C)c1=O (centres undefined) | 0.0312 µg/mL (≈ 0.0534 µM)
61 | CCn1c(=O)ccn(C2OC(Cn3cc(COC(=O)C(C)n4cnc5c4c(=O)n(C)c(=O)n5C)nn3)C(O)C2O)c1=O (centres undefined) | 0.0156 µg/mL (≈ 0.0266 µM)
62 | C#CCCOC(=O)Cn1cnc2c1c(=O)n(C)c(=O)n2C | 0.0625 µg/mL (≈ 0.215 µM)
63 | C#CCNC(=O)Cn1cnc2c1c(=O)n(C)c(=O)n2C | 0.0156 µg/mL (≈ 0.0567 µM)
64 | Cn1c(=O)c2c(ncn2CCCc2cn(CC3OC(n4ccc(=O)[nH]c4=O)C4OC(C)(C)OC34)nn2)n(C)c1=O (centres undefined) | 0.0625 µg/mL (≈ 0.113 µM)
